In assay [1] the target is T1, human plasma type α1,3FucT (Homo sapiens, UniProt Q11128).
T1 sequence (Q11128 1-374): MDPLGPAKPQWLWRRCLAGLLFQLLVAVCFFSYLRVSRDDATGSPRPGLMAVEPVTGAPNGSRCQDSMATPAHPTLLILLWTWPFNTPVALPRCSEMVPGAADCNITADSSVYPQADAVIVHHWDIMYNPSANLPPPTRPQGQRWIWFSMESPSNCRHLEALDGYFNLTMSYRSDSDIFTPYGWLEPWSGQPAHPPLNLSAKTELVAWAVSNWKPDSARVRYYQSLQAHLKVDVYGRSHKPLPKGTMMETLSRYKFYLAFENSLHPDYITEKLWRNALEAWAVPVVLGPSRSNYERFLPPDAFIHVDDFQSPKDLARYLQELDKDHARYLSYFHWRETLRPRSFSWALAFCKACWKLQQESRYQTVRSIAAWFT
As to the kind of experiment: Substrate specificity and inhibition study of α1,3FucT (GDP-14C-Fuc transfer assay). The format is biochemical. The note with it: for IC50 / Vrel (relative maximal velocities) / Km: 0.1 mM GDP-Fuc; for IC50: 10 mM Mn2+ and 10 mM LacNAc at pH 6.2 and 37° C.; for inhibition in combination with GDP: GDP present at its IC50 of 0.05 mM, FIG. 3: 34 mM Compound 50, 0.2 mM 14C-GDP-fucose, 20 mM MnCl2, pH 6.2; for mode of inhibition: versus LacNAc; for Vrel (relative maximal velocities): 10 mM MnCl2 and 10 mM Galβ1,4GlcNAc, Galβ1,4GlcNAc = 100; for Km: acceptor substrate, 10 mM MnCl2; for relative maximum velocity (Vrel) based on LacNAc: relative rate at Vmax. The procedure:
(§1) The assay procedure was essentially the same as described previously [Fukowska-Latallo et al, Gene & Development, 4:1288 (1990)] with some modifications. A stock mixture containing 0.25 mM GDP-^14C-Fuc (5000 cpm/mL), 6.25 mM ATP, 25 mM MnCl2 and 62.5 mM sodium cacodylate buffer, pH 6.2 was mixed freshly and kept on ice. […] The incubation was carried out at 37° C. for 30 to 240 minutes depending upon the acceptor under study. Separate assays in the absence of acceptor were used to correct for background hydrolysis of GDP-Fuc. Upon completion of incubation, 400 μL of a 25 percent (v/v) suspension of QAE-Sephadex was added. […] From the supernatant fluid, 200 μL were extracted and mixed with 10 mL of scintillation cocktail. The radioactivity was counted on a scintillation counter. […] This assay can be run in the absence of ATP.

Assay [2] concerns the target T2, GalT (Bos taurus, UniProt P08037).
T2 construct: purchased Sigma
T2 sequence (P08037 79-402 limits assumed): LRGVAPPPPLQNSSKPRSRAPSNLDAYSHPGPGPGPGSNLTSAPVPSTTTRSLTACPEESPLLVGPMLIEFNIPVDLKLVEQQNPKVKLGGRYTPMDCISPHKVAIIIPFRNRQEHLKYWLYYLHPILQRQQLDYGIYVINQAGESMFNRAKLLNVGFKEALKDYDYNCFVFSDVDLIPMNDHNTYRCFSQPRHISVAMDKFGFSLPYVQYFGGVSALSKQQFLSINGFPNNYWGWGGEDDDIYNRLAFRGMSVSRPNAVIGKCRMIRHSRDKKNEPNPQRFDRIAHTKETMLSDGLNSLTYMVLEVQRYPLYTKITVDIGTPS
The note with it: cited from earlier work.

Assay [3] concerns the target T3, α1,3/4Fucosyltransferase (Homo sapiens, UniProt P21217).
T3 sequence (P21217 1-361): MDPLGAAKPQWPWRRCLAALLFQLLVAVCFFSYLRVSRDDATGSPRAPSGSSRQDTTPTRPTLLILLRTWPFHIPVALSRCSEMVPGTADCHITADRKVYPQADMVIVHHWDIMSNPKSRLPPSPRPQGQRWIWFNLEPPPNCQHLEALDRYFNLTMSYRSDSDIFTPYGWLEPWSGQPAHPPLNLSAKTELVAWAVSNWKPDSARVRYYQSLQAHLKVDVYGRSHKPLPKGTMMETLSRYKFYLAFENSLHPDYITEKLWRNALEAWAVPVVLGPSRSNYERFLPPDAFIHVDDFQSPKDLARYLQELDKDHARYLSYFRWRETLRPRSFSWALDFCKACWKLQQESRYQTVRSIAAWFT
Kind of assay: Substrate specificity and inhibition study of α1,3/4FucT (GDP-14C-Fuc transfer assay). The format is biochemical. To be noted: for Vrel (relative velocities): 0.20 mM GDP-Fuc, 20 mM MnCl2, 10 mM acceptor, Galβ1,4GlcNAc = 100. Here is the method:
as §1

Read-outs that look alike come from different tables or passages of the source.

The molecule `OCC1N[C@@H](CO)C(O)[C@@H]1O` (stereo partly drawn) yielded an IC50 in assay [1] of 52 mM.
With `CC1N[C@@H](CO)C(O)[C@@H]1O` (stereo partly drawn) [Compound 50, (2R)-Methyl-(5S)-hydroxymethyl-(3R, 4R)-dihydroxyprollidine], in assay [1], the IC50 amounted to 34 mM; the “inhibition in combination with GDP” value is “profound, synergistic inhibition”; the mode of inhibition result is recorded as “competitive inhibitor”.
As to `CC1NC(CO)C(O)C1O` (stereo not drawn) [Compound 53], in assay [1], the half-inhibitory concentration (IC50) stood at 80 mM; the “inhibition in combination with GDP” value is “profound, synergistic inhibition”; the mode of inhibition entry was “competitive inhibitor”.
In the case of `OC[C@H]1NC[C@H](O)[C@@H](O)[C@@H]1O` [Deoxynojirimycin], the “substrate for α1,4GalT (in words)” value in assay [2] (Wong et al., J. Am. Chem. Soc., 113:8137-8145 (1991)) is listed as “a substrate”.
In assay [1], `Nc1nc2c(ncn2[C@@H]2O[C@H](COP(=O)(O)OP(=O)(O)O)[C@@H](O)[C@H]2O)c(=O)[nH]1` [GDP, guanosine 5′-diphosphate] registered an IC50 of 0.05 mM. Further, the Ki in assay [1] (footnote of Table 3, read-out: Ki) came to 19 mM; in assay [1] (noncompetitive inhibitor versus LacNAc, read-out: Kii), 0.13 mM; in assay [1] (noncompetitive inhibitor versus LacNAc, read-out: Kis) it was 0.16 mM. Moreover, the mode of inhibition entry in assay [1] is “noncompetitive inhibitor”.
As for `C[C@@H]1OC(OP(=O)(O)OP(=O)(O)OC[C@H]2O[C@@H](n3cnc4c(=O)[nH]c(N)nc43)[C@H](O)[C@@H]2O)[C@@H](O)[C@H](O)[C@@H]1O` (stereo partly drawn) [GDP-Fuc, guanosine 5′-diphospho fucose], in assay [3], the “inhibition of α1,3/4FucT (in words)” value is listed as “not an inhibitor”. For the same molecule, the “inhibition of α1,3FucT (in words)” value in assay [1] (at concentration above 0.2 mM in the presence of 10 mM LacNAc) is “potent inhibitor”.
In assay [1], `Nc1nc2c(ncn2C2OC(COP(=O)(O)OP(=O)(O)OC3OC(CO)C(O)C(O)C3O)C(O)C2O)c(=O)[nH]1` (stereo not drawn) [GDP-Man, guanosine 5′-diphospho-mannose] displayed an IC50 of 2 mM.
Same read-out and setting: the result for `CC(=O)N[C@H]1C(O)O[C@H](CO)[C@H](O)[C@@H]1O[C@@H]1O[C@H](CO)[C@H](O)[C@H](O)[C@H]1O` (stereo partly drawn) [Galβ1,3GalNAc] reads greater than 100 mM.
Regarding `CC(=O)N[C@H]1C(O)O[C@H](CO)[C@@H](O)[C@@H]1O[C@@H]1O[C@H](CO)[C@H](O)[C@H](O)[C@H]1O` (stereo partly drawn) [Galβ1,3GlcNAc], the “Vrel (relative velocities)” value in assay [3] was found to be 580. For the same molecule, in assay [1], the IC50 was greater than 50 mM and the “Vrel (relative maximal velocities)” value came out at 130.
As to `C=CCO[C@@H]1O[C@H](CO)[C@@H](O[C@@H]2O[C@H](CO)[C@H](O)[C@H](O)[C@H]2O)C[C@H]1NC(C)=O` [Galβ1,4(3-deoxy)GlcNAcβOallyl], the “inhibition of α1,3FucT (in words)” value in assay [1] (acceptor substrate analog) was “weak inhibitor”.
With `OC[C@H]1O[C@@H](O[C@H]2[C@H](O)[C@@H](O)C(O)S[C@@H]2CO)[C@H](O)[C@@H](O)[C@H]1O` (stereo partly drawn) [Galβ1,4(5-thioGlc), Galβ1,4(5-thio)Glc], the “Vrel (relative velocities)” value in assay [3] amounted to 310. In assay [1], the “Vrel (relative maximal velocities)” value is given as 51 and the Michaelis constant (Km) turned out to be 12 mM.
For `CC(=O)N[C@H]1C(O)O[C@H](CO)[C@H](O[C@@H]2O[C@H](CO)[C@H](O)[C@H](O)[C@H]2O)[C@@H]1O` (stereo partly drawn) [Galβ1,4GalNAc], the “Vrel (relative velocities)” value in assay [3] is given as 27.
Take `C=CCO[C@@H]1O[C@H](CO)[C@@H](O[C@@H]2O[C@H](CO)[C@H](O)[C@H](O)[C@H]2O)[C@H](O)[C@H]1NC(C)=O` [Galβ1,4GlcNAcβOallyl]: in assay [1], the “Vrel (relative maximal velocities)” value is 64 and the Km was found to be 16 mM.
Take `OC[C@H]1O[C@@H](O[C@H]2[C@H](O)[C@@H](O)C(O)O[C@@H]2CO)[C@H](O)[C@@H](O)[C@H]1O` (stereo partly drawn) [Galβ1,4Glc]: the “Vrel (relative velocities)” value in assay [3] is on record as 120. In addition, in assay [1], the “Vrel (relative maximal velocities)” value worked out at 150 and the “relative maximum velocity (Vrel) based on LacNAc” value (shortened to “relative maximum velocity”) worked out at 150%.
As to `OC[C@H]1NC[C@H](O)[C@@H](O)[C@@H]1O[C@@H]1O[C@H](CO)[C@H](O)[C@H](O)[C@H]1O` [Galβ1,4deoxynojirimycin], the IC50 came to 40 mM in assay [3] (inhibitor concentration required to give 50% inhibition with 0.2 mM GDP-Fuc) and 8 mM in assay [1].
As for `CC(=O)N[C@H]1C(O)O[C@H](CO)[C@@H](O)[C@@H]1O` (stereo partly drawn) [GlcNAc, N-acetylglucosamine], the Km in assay [2] (reported in Palcic et al., Carbohydr. Res., 159:315 (1987)) is 1.3 ± 1 mM.
In the case of `CC(=O)N[C@H]1[C@H](O[C@H]2[C@H](O)[C@@H](NC(C)=O)C(O)O[C@@H]2CO)O[C@H](CO)[C@@H](O)[C@@H]1O` (stereo partly drawn) [GlcNAcβ1,4GlcNAc], the “Vrel (relative velocities)” value in assay [3] is on record as 23. In assay [1], the 50% inhibitory concentration (IC50) is greater than 50 mM.
In the case of `CC(=O)N[C@H]1[C@H](OC[C@H]2O[C@@H](O[C@H]3[C@H](O)[C@@H](O)C(O)O[C@@H]3CO)[C@H](O)[C@@H](O)[C@H]2O)O[C@H](CO)[C@@H](O)[C@@H]1O` (stereo partly drawn) [GlcNAcβ1,6Galβ1,4Glc], in assay [3], the “Vrel (relative velocities)” value is recorded as 13.
For `CC(=O)NC1C(O)OC(CO)C(OC2OC(CO)C(O)C(OC3(C(=O)O)CC(O)C(NC(C)=O)C(C(O)C(O)CO)O3)C2O)C1O` (stereo not drawn) [NeuAcα2,3Galβ1,4GlcNAc], the “Vrel (relative velocities)” value in assay [3] is reported as 60. Besides, in assay [1], the “Vrel (relative maximal velocities)” value is on record as 620, the Km turned out to be 100 mM and the “relative maximum velocity” value was found to be 620%.
Turning to `CC(=O)N[C@H]1C([C@H](O)[C@H](O)CO)O[C@@](OC2[C@H](O)C(O[C@H]3C(O)C=COC3CO)OC(CO)[C@@H]2O)(C(=O)O)C[C@H]1O` (stereo partly drawn) [NeuAcα2,3Galβ1,4Glucal], in assay [1], the “Vrel (relative maximal velocities)” value came to 330, the Km turned out to be 64 mM and the “relative maximum velocity” value turned out to be 330%.
On to `CC(=O)N[C@@H]1[C@@H](O)[C@H](O[C@@H]2O[C@H](CO[C@]3(C(=O)O)C[C@H](O)[C@@H](NC(C)=O)[C@H]([C@H](O)[C@H](O)CO)O3)[C@H](O)[C@H](O)[C@H]2O)[C@@H](CO)O[C@H]1O` [NeuAcα2,6Galβ1,4GlcNAc], for which, in assay [1], the “Vrel (relative maximal velocities)” value is on record as 13 and the Km came out at 70 mM. For the same molecule, the “times less active as a substrate than the α2,3-isomer” value in assay [1] (compared with NeuAcα2,3Galβ1,4GlcNAc) is given as “about 50 times”.
In the case of Fucα1,2Galβ1,4Glc, in assay [3], the “Vrel (relative velocities)” value amounted to 250.
As to Galβ1,4GlcNAc, the “Vrel (relative velocities)” value in assay [3] came out at 100. Also, in assay [1], the “Vrel (relative maximal velocities)” value came out at 100 and the Km stood at 35 mM.
NeuAcα2,3Galβ1,4GlcNAcβOallyl: in assay [1], the “Vrel (relative maximal velocities)” value was found to be 380.

(Values after patent US7335500B2, “Production of fucosylated carbohydrates by enzymatic fucosylation synthesis of sugar nucleotides; and in situ regeneration of GDP-fucose” (The Scripps Research Institute, priority 1991, dated 2008).)
